From patent US9034906B2, “EP4 agonist” (Asahi Glass Company, Limited, priority 2008, dated 2015) come the findings set out here.

The subject of assay [1] is dextran sodium sulfate-induced colitis. Description: Dextran sodium sulfate-induced colitis model in mice (BALB/c), prophylactic. In kind it is in vivo, mouse. The settings on record: 2.2 w/v % DSS. The text has this: The prophylactic effect of compound F on ulcerative colitis was examined in dextran sodium sulfate-induced colitis model.
Female BALB/c mice (6 weeks old, Japan SLC) were purchased, acclimated for 1 week and used for the study. Except the normal group, the mice were allowed to freely drink a dextran sodium sulfate (to be abbreviated as DSS, MP Biochemicals, M.W. 36,000-50,000, Lot No. 3439J) solution prepared to 2.2 w/v % for 9 days to induce colitis. Compound F was orally administered at doses of 0.1, 0.3 and 1 mg/kg, once a day, daily, from the start day of DSS drinking (day 0) to one day before autopsy (day 9). To the control group was orally administered a solvent (1 vol % ethanol solution) at 10 mL/kg in the same manner.
Thus, to determine the level of diarrhea, the stool was graded into 6 levels; normal (score 0), spherical stool being not less than 50% (score 1), banana-shaped stool being less than 50% (score 2), banana-shaped stool being not less than 50% (score 3), muddy stool (score 4), watery stool (score 6) (stool consistency score). The fecal occult blood (including proctorrhagia) was graded using fecal occult blood slide 5 Shionogi II (Shionogi & Co., Ltd.) into 6 levels; negative (no change of the slide color from yellow, score 0), weakly positive (slightly blue green, score 1), positive (blue green, score 2), moderately positive (clear blue green, score 3), strongly positive (instantaneous color change to dark blue with color developer, score 4), and proctorrhagia (score 5). The sum of the stool consistency score and occult blood score was defined as the stool score. Eight to 10 animals were used for each group, and the results were expressed as average±standard deviation. On the day of autopsy, after laparotomy under ether anesthesia and blood collection, the mice were exsanguinated to death. Then the large intestines were dissected from just below the cecum to the anus and the length thereof was measured.

The next assay concerns T cell transfer colitis. Description: CD4+CD25- T cell transfer colitis model in mice. In kind it is in vivo, mouse. The settings on record: C.B-17/Icr-scid mice, oral 1 mg/kg once a day. The source says:
The effect on Crohn's disease, another type of inflammatory bowel disease, was studied. T cell transfer model is well known as a Crohn's disease model, which develops chronic […] or enteritis (see: References F, G, H). In addition, it can also be regarded as an animal model of intestinal Behcet's disease or simple ulcer, suffering from similar intestinal ulcer accompanied by activation of T cells (see: References I, J).
Female BALB/cA Jcl mice, 6 weeks old, body weight 19-23 g (CLEA Japan, Inc.) and female C.B-17/Icr-scid mice (6 weeks old, CLEA Japan, Inc.) were purchased, acclimated for 1 week and used for the study.
After laparotomy under ether anesthesia, BALB/cA Jcl mice were exsanguinated to death through the abdominal aorta and caudal vena cava, and the spleen was isolated. Splenocytes were prepared from the spleen and then CD4^+CD25^− T cells were prepared with a CD4^+ T cell Isolation Kit (No. 130-090-860, Milky Biotech Co., Ltd.) and CD25-Biotin antibody (No. 130-092-569, Milky Biotech Co., Ltd.). The cells were separated using the autoMACS Separator (Milky Biotech Co., Ltd.). The separated CD4^+CD25^− T cells were suspended in physiological phosphate buffer solution, and 2.5×10^5 cells per animal were intraperitoneally administered to C.B-17/Icr-scid mice to induce colitis.
One mg/kg of compound F or prednisolone was initially administered at 5 hr before transfer of CD4^+CD25^− T cells, and orally administered thereafter once a day, daily, for 20 days. To the control group was orally administered a solvent (1 vol % ethanol solution) at 10 mL/kg. A clinical endpoint was the sum of stool consistency score (0-5), fecal occult blood score (0-4) and body weight decrease score (0-5), termed as the Disease Activity Index score (hereinafter to be abbreviated as DAI score: highest score 14). The stool consistency score was graded for the hardness of stool as normal (0), slightly loose (1), somewhat loose (2), loose (3), considerably loose (4) and diarrhea (5). The fecal occult blood score was evaluated in the same manner as in Example 23. The body weight decrease score was graded for the changes in the body weight as increase (0), decrease of less than 3% (1), decrease of not less than 3% and less than 6% (2), decrease of not less than 6% and less than 9% (3), decrease of not less than 9% and less than 12% (4), and decrease of not less than 12% (5). Eight to 10 mice were used for each group and the results were expressed as average.

For the molecule `Cc1cccc([C@@H](C)[C@H](O)/C=C/[C@@H]2[C@@H]3[C@H](C[C@H]2O)O/C(=C\CCCc2nnn[nH]2)C3(F)F)c1` [Compound F, 4-[(Z)-(1S,5R,6R,7R)-6-[(1E,3R,4R)-3-hydroxy-4-(m-tolyl)-1-pentenyl]-7-hydroxy-2-oxa-4,4-difluoro-bicyclo[3.3.0]octan-3-ylidene]-1-(tetrazol-5-yl)butane], the “Suppression of the increase in the stool score” value in assay [1] (oral 0.1 mg/kg once a day) is recorded as “suppressive tendency”. Moreover, the “Effect on shortening of the large intestine” value in assay [1] (oral 0.1, 0.3 and 1 mg/kg once a day) is “dose-dependent suppressive effect”. Moreover, the “Suppression of the increase in the stool score” value in assay [1] (oral 0.3 and 1 mg/kg once a day) is recorded as “significant”. For the same molecule, in the assay on T cell transfer colitis, the DAI score entry is recorded as “comprehensively superior to prednisolone”; the “Effect on body weight decrease score” value is “prevented the increase in the body weight decrease score almost completely”; the “Effect on fecal occult blood score” value was “suppressed the increases in both the stool consistency score and the fecal occult blood score by almost half”; the “Effect on stool consistency score” value is “suppressed the increases in both the stool consistency score and the fecal occult blood score by almost half”.
